Reference: patent US10745396B2, “Pesticidally active polycyclic derivatives with sulfur containing substituents” (Syngenta Participations AG, priority 2015, dated 2020)

Experiments:
Assay type in all cases: in vivo
[1] = tested on: Euschistus heros (Neotropical Brown Stink Bug); test: Euschistus heros, soybean leaves on agar, N2 nymphs; details: 120 h, application rate of 200 ppm, 5 days after infestation, read-out: effect in at least one of the two categories (mortality or growth inhibition)
Procedure: Example B3: Euschistus heros (Neotropical Brown Stink Bug)
Soybean leaves on agar in 24-well microtiter plates were sprayed with aqueous test solutions prepared from 10′000 ppm DMSO stock solutions. After drying the leaves were infested with N2 nymphs. The samples were assessed for mortality and growth inhibition in comparison to untreated samples 5 days after infestation.

[2] = tested on: Plutella xylostella (Diamond Back Moth); test: Plutella xylostella, artificial diet, L2 larvae; details: 120 h, application rate of 200 ppm, 5 days after infestation, read-out: effect in at least one of the two categories (mortality or growth inhibition)
Procedure: Example B7: Plutella xylostella (Diamond Back Moth)
(§1) 24-well microtiter plates with artificial diet were treated with aqueous test solutions prepared from 10′000 ppm DMSO stock solutions by pipetting. After drying, the plates were infested with L2 larvae (10 to 15 per well). The samples were assessed for mortality and growth inhibition in comparison to untreated samples 5 days after infestation.

[3] = tested on: Spodoptera littoralis (Egyptian Cotton Leaf Worm); test: Spodoptera littoralis, uptake by lettuce roots from agar, eggs; details: 144 h, test rate of 12.5 ppm, 6 days after infestation, read-out: effect in at least one of the three categories (mortality, anti-feeding, or growth inhibition)
Source text: Example B9: Spodoptera littoralis (Egyptian Cotton Leaf Worm)
Test compounds were applied by pipette from 10′000 ppm DMSO stock solutions into 24-well plates and mixed with agar. Lettuce seeds were placed onto the agar and the multi well plate was closed by another plate which contained also agar. After 7 days the compound was absorbed by the roots and the lettuce grew into the lid plate. The lettuce leaves were then cut off into the lid plate. Spodoptera eggs were pipetted through a plastic stencil onto a humid gel blotting paper and the lid plate was closed with it. The samples were assessed for mortality, anti-feedant effect and growth inhibition in comparison to untreated samples 6 days after infestation.

[4] = tested on: Diabrotica balteata (Corn Root Worm); test: Diabrotica balteata, maize sprouts on agar, L2 larvae; details: 96 h, application rate of 200 ppm, 4 days after infestation, read-out: effect in at least one of the two categories (mortality or growth inhibition)
Procedure: Example B2: Diabrotica balteata (Corn Root Worm)
as §1, with “Maize sprouts placed onto an agar layer in 24-well” for “24-well”, “plates” for “plates with artificial diet”, “spraying.” for “pipetting.”, “(6” for “(10”, “10” for “15”, “4” for “5”

[5] = tested on: Spodoptera littoralis (Egyptian Cotton Leaf Worm); test: Spodoptera littoralis, cotton leaf discs, L1 larvae; details: foliar, 72 h, application rate of 200 ppm, 3 days after infestation
Procedure: Example B8: Spodoptera littoralis (Egyptian Cotton Leaf Worm)
Cotton leaf discs were placed onto agar in 24-well microtiter plates and sprayed with aqueous test solutions prepared from 10′000 ppm DMSO stock solutions. After drying the leaf discs were infested with five L1 larvae. The samples were assessed for mortality, anti-feeding effect, and growth inhibition in comparison to untreated samples 3 days after infestation. Control of Spodoptera littoralis by a test sample is given when at least one of the categories mortality, anti-feedant effect, and growth inhibition is higher than the untreated sample.

[6] = tested on: Myzus persicae (Green Peach Aphid); test: Myzus persicae feeding/contact activity, sunflower leaf discs; details: foliar, 144 h, application rate of 200 ppm, 6 days after infestation
Procedure: Example B5: Myzus persicae (Green Peach Aphid): Feeding/Contact Activity
(§2) Sunflower leaf discs were placed onto agar in a 24-well microtiter plate and sprayed with aqueous test solutions prepared from 10′000 ppm DMSO stock solutions. After drying, the leaf discs were infested with an aphid population of mixed ages. The samples were assessed for mortality 6 days after infestation.

[7] = tested on: Bemisia tabaci (Cotton White Fly); test: Bemisia tabaci feeding/contact activity, cotton leaf discs; details: foliar, 144 h, application rate of 200 ppm, 6 days after incubation, adult white flies
Procedure: Example B1: Bemisia tabaci (Cotton White Fly): Feeding/Contact Activity
Cotton leaf discs were placed on agar in 24-well microtiter plates and sprayed with aqueous test solutions prepared from 10′000 ppm DMSO stock solutions. After drying the leaf discs were infested with adult white flies. The samples were checked for mortality 6 days after incubation.

[8] = tested on: Myzus persicae (Green Peach Aphid); test: Myzus persicae systemic activity, pea seedling roots in test solution; details: 144 h, test rate of 24 ppm, 6 days after placing seedlings into test solutions
Procedure: Example B6: Myzus persicae (Green Peach Aphid): Systemic Activity
Roots of pea seedlings infested with an aphid population of mixed ages were placed directly into aqueous test solutions prepared from 10′000 DMSO stock solutions. The samples were assessed for mortality 6 days after placing seedlings into test solutions.

[9] = tested on: Thrips tabaci (Onion Thrips); test: Thrips tabaci feeding/contact activity, sunflower leaf discs; details: foliar, 144 h, application rate of 200 ppm, 6 days after infestation
Procedure: Example B11: Thrips tabaci (Onion Thrips) Feeding/Contact Activity
as §2, with “on” for “onto”, “in” for “in a”, “plates” for “plate”, “drying” for “drying,”, “a thrips” for “an aphid”

[10] = tested on: Frankliniella occidentalis (Western Flower Thrips); test: Frankliniella occidentalis feeding/contact activity, sunflower leaf discs; details: foliar, 168 h, application rate of 200 ppm, 7 days after infestation, population of mixed ages
Procedure: Example B4: Frankliniella occidentalis (Western Flower Thrips): Feeding/Contact Activity
Sunflower leaf discs were placed on agar in 24-well microtiter plates and sprayed with aqueous test solutions prepared from […] stock solutions. After drying the leaf discs were infested with a Frankliniella population of mixed ages. The samples were assessed for mortality 7 days after infestation.

[11] = tested on: Tetranychus urticae (Two-Spotted Spider Mite); test: Tetranychus urticae feeding/contact activity, bean leaf discs; details: foliar, 192 h
Procedure: Example B10: Tetranychus urticae (Two-Spotted Spider Mite): Feeding/Contact Activity
Bean leaf discs on agar in 24-well microtiter plates were sprayed with aqueous test solutions prepared from 10′000 ppm DMSO stock solutions. After drying the leaf discs were infested with a mite population of mixed ages. The samples were assessed for mortality on mixed population (mobile stages) 8 days after infestation.

CCn1c(C(F)(F)F)cc2nc(-c3nc(-c4cncnc4)ccc3S(=O)(=O)CC)n(C)c2c1=O [Compound P21]
≥ 80%: percent effect (mortality or growth inhibition) at 200 ppm [1] | percent effect (mortality or growth inhibition) at 200 ppm [2] | percent effect (mortality, anti-feeding or growth inhibition) at 12.5 ppm [3] | percent effect (mortality or growth inhibition) at 200 ppm [4] | percent control (mortality, anti-feedant effect or growth inhibition) at 200 ppm [5] | mortality at 200 ppm [6] | mortality at 200 ppm [7]

CCn1c(C(F)(F)F)cc2nc(-c3nc(-n4cncn4)ccc3S(=O)(=O)CC)n(C)c2c1=O [Compound P5]
≥ 80%: mortality at 24 ppm [8] | percent effect (mortality or growth inhibition) at 200 ppm [1] | percent effect (mortality or growth inhibition) at 200 ppm [2] | percent effect (mortality, anti-feeding or growth inhibition) at 12.5 ppm [3] | percent effect (mortality or growth inhibition) at 200 ppm [4] | mortality at 200 ppm [9] | percent control (mortality, anti-feedant effect or growth inhibition) at 200 ppm [5] | mortality at 200 ppm [6] | mortality at 200 ppm [7]

CCn1c(C(F)(F)F)cc2nc(-c3nc(-n4ccc(C(F)(F)F)n4)ccc3S(=O)(=O)CC)n(C)c2c1=O [Compound P3, 5-ethyl-2-[3-ethylsulfonyl-6-[3-(trifluoromethyl)pyrazol-1-yl]-2-pyridyl]-3-methyl-6-(trifluoromethyl)imidazo[4,5-c]pyridin-4-one]
≥ 80%: percent effect (mortality or growth inhibition) at 200 ppm [1] | percent effect (mortality or growth inhibition) at 200 ppm [2] | percent effect (mortality or growth inhibition) at 200 ppm [4] | percent control (mortality, anti-feedant effect or growth inhibition) at 200 ppm [5] | mortality at 200 ppm [7]

CCn1c(C(F)(F)F)cc2nc(-c3nc(-c4cnc(OC)nc4)ccc3S(=O)(=O)CC)n(C)c2c1=O [Compound P20]
≥ 80%: percent effect (mortality or growth inhibition) at 200 ppm [1] | percent effect (mortality or growth inhibition) at 200 ppm [2] | mortality at 200 ppm [10] | percent effect (mortality, anti-feeding or growth inhibition) at 12.5 ppm [3] | percent effect (mortality or growth inhibition) at 200 ppm [4] | percent control (mortality, anti-feedant effect or growth inhibition) at 200 ppm [5] | mortality at 200 ppm [6]

CCn1c(C(F)(F)F)cc2nc(-c3nc(-c4ccc(C(F)(F)F)nc4)ccc3S(=O)(=O)CC)n(C)c2c1=O [Compound P16]
≥ 80%: percent effect (mortality or growth inhibition) at 200 ppm [1] | percent effect (mortality or growth inhibition) at 200 ppm [2] | mortality at 200 ppm [10] | percent effect (mortality or growth inhibition) at 200 ppm [4] | percent control (mortality, anti-feedant effect or growth inhibition) at 200 ppm [5] | mortality at 200 ppm [6] | mortality at 200 ppm [7]

CCn1c(C(F)(F)F)cc2nc(-c3nc(-c4cnco4)ccc3S(=O)(=O)CC)n(C)c2c1=O [Compound P38]
≥ 80%: mortality at 24 ppm [8] | percent effect (mortality or growth inhibition) at 200 ppm [2] | percent effect (mortality or growth inhibition) at 200 ppm [4] | percent control (mortality, anti-feedant effect or growth inhibition) at 200 ppm [5] | mortality at 200 ppm [6]

CCn1c(C(F)(F)F)cc2nc(-c3nc(-c4cccc(F)c4)ccc3S(=O)(=O)CC)n(C)c2c1=O [Compound P14]
≥ 80%: percent effect (mortality or growth inhibition) at 200 ppm [1] | percent effect (mortality or growth inhibition) at 200 ppm [2] | percent effect (mortality, anti-feeding or growth inhibition) at 12.5 ppm [3] | percent effect (mortality or growth inhibition) at 200 ppm [4] | percent control (mortality, anti-feedant effect or growth inhibition) at 200 ppm [5] | mortality at 200 ppm [6] | mortality at 200 ppm [7]

CCn1c(C(F)(F)F)cc2nc(-c3nc(-c4cc(F)ccc4F)ccc3S(=O)(=O)CC)n(C)c2c1=O [Compound P37]
≥ 80%: percent effect (mortality or growth inhibition) at 200 ppm [1] | percent effect (mortality or growth inhibition) at 200 ppm [2] | percent effect (mortality, anti-feeding or growth inhibition) at 12.5 ppm [3] | percent effect (mortality or growth inhibition) at 200 ppm [4] | percent control (mortality, anti-feedant effect or growth inhibition) at 200 ppm [5] | mortality at 200 ppm [7]

CCS(=O)(=O)c1ccc(-n2cncn2)nc1-c1nc2cc(C(F)(F)F)n(C3CC3)c(=O)c2n1C [Compound P4, 5-cyclopropyl-2-[3-ethylsulfonyl-6-(1,2,4-triazol-1-yl)-2-pyridyl]-3-methyl-6-(trifluoromethyl)imidazo[4,5-c]pyridin-4-one]
≥ 80%: mortality at 24 ppm [8] | percent effect (mortality or growth inhibition) at 200 ppm [1] | percent effect (mortality or growth inhibition) at 200 ppm [2] | percent effect (mortality, anti-feeding or growth inhibition) at 12.5 ppm [3] | percent effect (mortality or growth inhibition) at 200 ppm [4] | mortality at 200 ppm [9] | percent control (mortality, anti-feedant effect or growth inhibition) at 200 ppm [5] | mortality at 200 ppm [6] | mortality at 200 ppm [11] | mortality at 200 ppm [7]

CCn1c(C(F)(F)F)cc2nc(-c3nc(C4CC4)ccc3S(=O)(=O)CC)n(C)c2c1=O [Compound P11]
≥ 80%: mortality at 200 ppm [7]

CCn1c(C(F)(F)F)cc2nc(-c3nc(-c4ccncc4)ccc3S(=O)(=O)CC)n(C)c2c1=O [Compound P13]
≥ 80%: percent effect (mortality or growth inhibition) at 200 ppm [2] | mortality at 200 ppm [10] | percent effect (mortality or growth inhibition) at 200 ppm [4] | percent control (mortality, anti-feedant effect or growth inhibition) at 200 ppm [5]

CCn1c(C(F)(F)F)cc2nc(-c3nc(-c4cccc(SC)c4)ccc3S(=O)(=O)CC)n(C)c2c1=O [Compound P29]
≥ 80%: percent effect (mortality or growth inhibition) at 200 ppm [1] | percent effect (mortality or growth inhibition) at 200 ppm [2] | percent effect (mortality or growth inhibition) at 200 ppm [4] | percent control (mortality, anti-feedant effect or growth inhibition) at 200 ppm [5] | mortality at 200 ppm [6] | mortality at 200 ppm [7]

CCn1c(C(F)(F)F)cc2nc(-c3nc(-c4cncn4C)ccc3S(=O)(=O)CC)n(C)c2c1=O [Compound P28]
≥ 80%: percent effect (mortality or growth inhibition) at 200 ppm [2] | percent effect (mortality or growth inhibition) at 200 ppm [4] | percent control (mortality, anti-feedant effect or growth inhibition) at 200 ppm [5] | mortality at 200 ppm [7]

CCn1c(C(F)(F)F)cc2nc(-c3nc(-c4cc(F)cc(F)c4)ccc3S(=O)(=O)CC)n(C)c2c1=O [Compound P12]
≥ 80%: percent effect (mortality or growth inhibition) at 200 ppm [1] | percent effect (mortality or growth inhibition) at 200 ppm [2] | percent effect (mortality, anti-feeding or growth inhibition) at 12.5 ppm [3] | percent effect (mortality or growth inhibition) at 200 ppm [4] | percent control (mortality, anti-feedant effect or growth inhibition) at 200 ppm [5] | mortality at 200 ppm [6]
